# Data reported in patent US9612237B2, “Ritalinic acid immunoassay” (Randox Laboratories Limited, priority 2013, dated 2017).
# Counter-ions that a name gives are not always drawn. Like-named read-outs stand apart in the source and are kept apart here.
# Test system: antisera generated in response to immunogen of Example 11
# Assay: Competitive chemiluminescent biochip immunoassay, antisera raised against immunogen of Example 11, conjugate of Example 12
# Format: binding, sheep
# Settings: for % cross reactivity: biochip, relative to methylphenidate = 100
# [1] = value is the concentration at which no cross-reactivity was exhibited
Molecule,Concentration exhibiting no cross-reactivity [1] [µg/mL],also measured
C[C@H](N)Cc1ccccc1 [D-amphetamine],10,
CC(C)Cc1ccc(C(C)C(=O)O)cc1 (stereo not drawn) [S-(+)-ibuprofen],250,
Cc1ccccc1-n1c(C)nc2ccccc2c1=O [methaqualone],10,
O=C(O)C(Cl)(Cl)Cl [trichloroacetic acid],100,
CN[C@@H](C)Cc1ccccc1 [MAMP],2.5,
"CNCC1CCCCC1(O)c1cccc(O)c1 (racemic) [rac N,O-didesmethyl tramadol]",0.18,
c1ccc(CN2CCNCC2)cc1 [1-benzylpiperiazine],10,
CCN(CC)C(=O)[C@@H]1C=C2c3cccc4[nH]cc(c34)C[C@H]2N(C)C1 [LSD],10,
NCCc1ccccc1.O=S(=O)(O)O [phenethylamine sulfate],250,
CC(C)Cc1ccc([C@@H](C)C(=O)O)cc1 [(R)-(−)-ibuprofen],250,
c1ccc(C2(N3CCCCC3)CCCCC2)cc1 [PCP],,% cross reactivity: <0.1%
COc1ccc2cc([C@H](C)C(=O)O)ccc2c1 [naproxen],,Concentration exhibiting no cross-reactivity: 250 µg/mL
O=c1n(CCCN2CCN(c3cccc(Cl)c3)CC2)nc2ccccn12 [trazodone HCl],10,
dextrorphan tartrate salt,0.25,
CC(=O)N=C1C=CC(=O)C=C1 [N-acetylbenzoquinomeimine],125,
O=C(O)CNC(=O)c1cc(O)ccc1O [gentisuric acid],250,
CCOC(=O)C1(c2ccccc2)CCNCC1 [normeperidine],1,
Cc1ccc(-c2nc3ccc(C)cn3c2CC(=O)N(C)C)cc1 [zolpidem tartrate],10,
COc1ccc2c(c1)[C@]13CCCC[C@@H]1[C@H](C2)N(C)CC3 [dextromethorphan hydrobromide monohydrate],10,
O=C(O)c1ccccc1 [benzoic acid],250,
COc1ccc2c(c1)[C@@]13CCCC[C@H]1[C@@H](C2)NCC3.Cl [3-methoxymorphinan HCl],0.25,
CC(=O)Nc1ccc(O)c(SC[C@H](N)C(=O)O)c1.O=C(O)C(F)(F)F [3-cysteinylacetaminophen trifluoroacetic acid salt],,Concentration exhibiting no cross-reactivity: 250 µg/mL
COC(=O)c1ccccc1O [methyl salicylate],250,
CCC(C)C(C)(COC(N)=O)COC(N)=O (stereo not shown) [mebutamate],0.35,

Molecule,Concentration exhibiting no cross-reactivity [1] [µg/mL],also measured
COc1ccc2c3c1O[C@H]1[C@@H](O)C=C[C@H]4[C@@H](C2)N(C)CC[C@@]341 [codeine],0.25,
CC(=O)Nc1ccc(OS(=O)(=O)[O-])cc1.[K+] [4-acetaminophen sulphate potassium salt],,Concentration exhibiting no cross-reactivity: 250 µg/mL
CCN(C(C)=O)c1cccc(-c2ccnc3c(C#N)cnn23)c1 [zaleplon],10,
CCOc1ccc(N)cc1 [p-phenetidine],106.35,
CCN(CC)CCN1C(=O)CN=C(c2ccccc2F)c2cc(Cl)ccc21 [flurazepam],,% cross reactivity: <1%
COc1cccc(C2(O)CCCCC2CN(C)C)c1 (stereo not shown) [tramadol HCl],10,
COc1ccc2c3c1O[C@H]1C(=O)CC[C@@]4(O)[C@@H](C2)N(C)CC[C@]314 [oxycodone],10,
salicylic acid B-D glucuronide,125,
CCC(=O)C(CC(C)N(C)C)(c1ccccc1)c1ccccc1 (stereo not shown) [methadone],10,
CC(=O)Nc1ccc(O[C@@H]2O[C@H](C(=O)[O-])[C@@H](O)[C@H](O)[C@H]2O)cc1.[Na+] [4-acetamidophenyl β-D-glucuronide sodium salt],250,
CC(=O)Oc1ccc2c3c1O[C@H]1[C@@H](OC(C)=O)C=C[C@H]4[C@@H](C2)N(C)CC[C@@]341 [heroin],10,
Cl.NC1CCC(c2ccc(Cl)c(Cl)c2)c2ccccc21 (stereo not shown) [N-desmethyl sertraline HCl],,Concentration exhibiting no cross-reactivity: 10 µg/mL
Oc1ccc(C(F)(F)F)cc1 [p-trifluoromethylphenol],2.5,
CN[C@H]1CC[C@@H](c2ccc(Cl)c(Cl)c2)c2ccccc21 [sertaline],7.5,
CN[C@@H](C)[C@@H](O)c1ccccc1.Cl [(+)-pseudoephedrine HCl],,% cross reactivity: 0.2%
Oc1cccc(N2CCNCC2)c1 [1-(3-hydroxyphenyl)-piperazine],,Concentration exhibiting no cross-reactivity: 0.4 µg/mL
CN(C(=O)O[C@@H]1O[C@H](C(=O)O)[C@@H](O)[C@H](O)[C@H]1O)[C@H]1CC[C@@H](c2ccc(Cl)c(Cl)c2)c2ccccc21 [sertraline carbamoyl glocuronide],,Concentration exhibiting no cross-reactivity: 3 µg/mL
CN1C(=O)CN=C(c2ccccc2F)c2cc(N)ccc21 [7-NH flunitrazepam],10,
CN1C(=O)CC[C@H]1c1cccnc1 [(−)-cotinine],22,
CCOc1ccc(NC(C)=O)cc1 [phenacetin],250,
COc1ccc2c3c1O[C@H]1C(=O)CC[C@H]4[C@@H](C2)N(C)CC[C@]314 [hydrocodone],10,
CC(=O)Oc1ccccc1C(=O)O [aspirin],250,
Br.CNCCC[C@@]1(c2ccc(F)cc2)OCc2cc(C#N)ccc21 [N-desmethyl escitalopram hydrobromide],10,
Oc1ccc2c(c1)[C@@]13CCCC[C@H]1[C@@H](C2)NCC3 [N-desmethyl dextorphan],0.25,

Molecule,Concentration exhibiting no cross-reactivity [1] [µg/mL],also measured
"O=C(O)c1cccc(O)c1O [2,3-dihydroxy benzoic acid]",250,
CC(Cc1ccc(C(C)C(=O)O)cc1)C(=O)O (stereo not shown) [ibuprofen carboxylic acid],250,
CC(=O)Nc1ccc(O)c(SC[C@H](NC(C)=O)C(=O)[O-])c1.[Na+] [3-(N-acetyl-L-cystein-s-yl) acetaminophen sodium salt],,Concentration exhibiting no cross-reactivity: 250 µg/mL
CC(C(=O)O)c1cccc(C(=O)c2ccccc2)c1 (stereo not shown) [ketoprofen],250,
CNCCC(Oc1ccc(C(F)(F)F)cc1)c1ccccc1 (stereo not shown) [fluoxetine HCl],10,
O=C1CN=C(c2ccccc2)c2cc(Cl)ccc2N1 [nordiazepam],3,
CN1CCN(C(=O)OC2c3nccnc3C(=O)N2c2ccc(Cl)cn2)CC1 (stereo not shown) [zopiclone],10,
CN1CC[C@]23CCCC[C@H]2[C@H]1Cc1ccc(O)cc13 [levorphanol],0.25,
COc1ccc(NC(C)=O)cc1 [methacetin],250,
CC(C)Cc1ccc(CC(=O)O)cc1 [ibufenac],250,
COc1cccc(C2(O)CCCCC2CN)c1.Cl (racemic) [rac N-bisdesmethyl tramadol HCl],0.18,
CNC(C)Cc1ccc2c(c1)OCO2 (stereo not shown) [MDMA],5,
CC(=O)Nc1ccc(OC(=O)c2ccccc2OC(C)=O)cc1 [benorylate HCl],250,
COc1ccc(C(CN(C)C)C2(O)CCCCC2)cc1 (stereo not shown) [venlafaxine HCl],0.18,
"CCC(=O)OC(Cc1ccccc1)(c1ccccc1)C(C)CNC.O=C(O)/C=C\C(=O)O (single isomer, unassigned; (+)) [(+)-norpropoxyphene maleate]",10,
O=c1n(CCC[N+]2([O-])CCN(c3cccc(Cl)c3)CC2)nc2ccccn12 [trazodone N-oxide],,Concentration exhibiting no cross-reactivity: 0.4 µg/mL
CCCCCc1cc(O)c2c(c1)OC(C)(C)[C@@H]1CCC(C)=C[C@@H]21 [delta-9-THC],10,
CCOC(=O)[C@@H](c1ccccc1)[C@H]1CCCCN1.Cl (racemic) [rac-erythro-ethylphenidate HCl],,% cross reactivity: 1.9%
O=C(O)c1cc(-c2ccc(F)cc2F)ccc1O [diflusinal],250,
O=C(O)c1cc(O)ccc1O [gentisic acid],250,
O=C[C@H](O)[C@@H](O)[C@H](O)[C@H](O)C(=O)O [D-glucuronic acid],60,
CC(C(=O)O)c1ccc(CC(C)(C)O)cc1 (racemic) [rac-2-hydroxy ibuprofen],125,
